Reference: ChEMBL document CHEMBL1201862, “PubChem BioAssay data set” (2004)
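Test compounds were applied to cells in 96-well plates for 48 hours at 5 doses. Abbreviation: GI50, concentration required for 50% inhibition of growth.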 Calls of active or inactive are those of the source. No stated cut-off is given here; in the data, active = GI50 up to about 1.1 µM and inactive = higher.

Assays:
Test in all cases: NCI anticancer screen, dose series, 48 h
SNB-19 = test system: SNB-19
T47D = test system: T47D
UACC-62 = test system: UACC-62
A498 = test system: A498
COLO 205 = test system: COLO 205
MOLT-4 = test system: MOLT-4
SK-OV-3 = test system: SK-OV-3
OVCAR-5 = test system: OVCAR-5
EKVX = test system: EKVX
OVCAR-3 = test system: OVCAR-3
Malme-3M = test system: Malme-3M
HCC 2998 = test system: HCC 2998
SF-295 = test system: SF-295
Hs-578T = test system: Hs-578T
BT-549 = test system: BT-549
MDA-MB-231 = test system: MDA-MB-231
M14 = test system: M14
TK-10 = test system: TK-10
HOP-92 = test system: HOP-92
DU-145 = test system: DU-145
HCT-116 = test system: HCT-116
MDA-MB-435 = test system: MDA-MB-435
RPMI-8226 = test system: RPMI-8226
PC-3 = test system: PC-3
HOP-62 = test system: HOP-62
SN12C = test system: SN12C
CCRF-CEM = test system: CCRF-CEM
IGROV-1 = test system: IGROV-1
LOX IMVI = test system: LOX IMVI
MDA-N = test system: MDA-N
CAKI-1 = test system: CAKI-1
UO-31 = test system: UO-31
SW-620 = test system: SW-620
SK-MEL-5 = test system: SK-MEL-5
HT-29 = test system: HT-29
NCI/ADR-RES = test system: NCI/ADR-RES
NCI-H460 = test system: NCI-H460
ACHN = test system: ACHN
HCT-15 = test system: HCT-15
U-251 = test system: U-251
786-0 = test system: 786-0
HL-60 = test system: HL-60
OVCAR-4 = test system: OVCAR-4
MCF7 = test system: MCF7
SNB-75 = test system: SNB-75
NCI-H522 = test system: NCI-H522
OVCAR-8 = test system: OVCAR-8
SK-MEL-2 = test system: SK-MEL-2
KM12 = test system: KM12
SF-539 = test system: SF-539
SR = test system: SR
A549 = test system: A549
SK-MEL-28 = test system: SK-MEL-28
NCI-H23 = test system: NCI-H23
UACC-257 = test system: UACC-257
RXF 393 = test system: RXF 393
SF-268 = test system: SF-268
K562 = test system: K562
NCI-H226 = test system: NCI-H226

SMILES: C/C(Cl)=N\OC(=O)Nc1ccc([N+](=O)[O-])cc1
- GI50 (SNB-19): 17.5 µM (inactive)
- GI50 (T47D): 9.48 µM (inactive)
- GI50 (UACC-62): 22.2 µM (inactive)
- GI50 (A498): 15.3 µM (inactive)
- GI50 (COLO 205): 2.49 µM (inactive)
- GI50 (MOLT-4): 1.92 µM (inactive)
- GI50 (SK-OV-3): 13.3 µM (inactive)
- GI50 (OVCAR-5): 16.4 µM (inactive)
- GI50 (EKVX): 19.3 µM (inactive)
- GI50 (OVCAR-3): 2.12 µM (inactive)
- GI50 (Malme-3M): 3.01 µM (inactive)
- GI50 (HCC 2998): 15.6 µM (inactive)
- GI50 (SF-295): 16.8 µM (inactive)
- GI50 (Hs-578T): 25 µM (inactive)
- GI50 (BT-549): 23 µM (inactive)
- GI50 (MDA-MB-231): 18.7 µM (inactive)
- GI50 (M14): 12.9 µM (inactive)
- GI50 (TK-10): 14.7 µM (inactive)
- GI50 (HOP-92): 2.59 µM (inactive)
- GI50 (DU-145): 17.6 µM (inactive)
- GI50 (HCT-116): 7.94 µM (inactive)
- GI50 (MDA-MB-435): 18.8 µM (inactive)
- GI50 (RPMI-8226): 2.36 µM (inactive)
- GI50 (PC-3): 16.2 µM (inactive)
- GI50 (HOP-62): > 100 µM (inactive)
- GI50 (SN12C): 12.4 µM (inactive)
- GI50 (CCRF-CEM): 2.77 µM (inactive)
- GI50 (IGROV-1): 17.5 µM (inactive)
- GI50 (LOX IMVI): 5.36 µM (inactive)
- GI50 (MDA-N): 10.8 µM (inactive)
- GI50 (CAKI-1): 5.21 µM (inactive)
- GI50 (UO-31): 5.6 µM (inactive)
- GI50 (SW-620): 2 µM (inactive)
- GI50 (SK-MEL-5): 17.4 µM (inactive)
- GI50 (HT-29): 9.71 µM (inactive)
- GI50 (NCI/ADR-RES): 17.6 µM (inactive)
- GI50 (NCI-H460): 18.7 µM (inactive)
- GI50 (ACHN): 4.73 µM (inactive)
- GI50 (HCT-15): 14.1 µM
- GI50 (U-251): 17.6 µM (inactive)
- GI50 (786-0): 5.92 µM (inactive)
- GI50 (HL-60): 1.82 µM (inactive)
- GI50 (OVCAR-4): 13.7 µM (inactive)
- GI50 (MCF7): 3.08 µM (inactive)
- GI50 (SNB-75): 16.7 µM (inactive)
- GI50 (NCI-H522): 1.99 µM (inactive)
- GI50 (OVCAR-8): 15.1 µM (inactive)
- GI50 (SK-MEL-2): 17.5 µM (inactive)
- GI50 (KM12): 15.5 µM (inactive)
- GI50 (SF-539): 16.3 µM (inactive)
- GI50 (SR): 6.79 µM (inactive)
- GI50 (A549): 21.6 µM (inactive)
- GI50 (SK-MEL-28): 17.2 µM (inactive)
- GI50 (NCI-H23): 21.5 µM (inactive)
- GI50 (UACC-257): 16.8 µM (inactive)
- GI50 (RXF 393): 16.8 µM (inactive)
- GI50 (SF-268): 21 µM (inactive)
- GI50 (K562): 2.02 µM (inactive)
- GI50 (NCI-H226): > 100 µM (inactive)

SMILES: CC(=O)NC1=C(OS(=O)(=O)c2ccc(C)cc2)CN(C)C1=O
- GI50 (SNB-19): 3.43 µM (inactive)
- GI50 (T47D): 2.12 µM (inactive)
- GI50 (UACC-62): 6.79 µM (inactive)
- GI50 (A498): 4.25 µM (inactive)
- GI50 (COLO 205): 5.75 µM (inactive)
- GI50 (MOLT-4): 3.25 µM (inactive)
- GI50 (SK-OV-3): 7.57 µM (inactive)
- GI50 (OVCAR-5): 16.7 µM (inactive)
- GI50 (EKVX): 4.84 µM (inactive)
- GI50 (OVCAR-3): 2.74 µM (inactive)
- GI50 (Malme-3M): 2.26 µM (inactive)
- GI50 (HCC 2998): 2.43 µM (inactive)
- GI50 (SF-295): 4.1 µM (inactive)
- GI50 (Hs-578T): 4.03 µM (inactive)
- GI50 (BT-549): 3.09 µM (inactive)
- GI50 (MDA-MB-231): 7.82 µM (inactive)
- GI50 (M14): 5.04 µM (inactive)
- GI50 (TK-10): 1.94 µM (inactive)
- GI50 (HOP-92): 2.84 µM (inactive)
- GI50 (DU-145): 4.2 µM (inactive)
- GI50 (HCT-116): 3.15 µM (inactive)
- GI50 (MDA-MB-435): 4.26 µM (inactive)
- GI50 (RPMI-8226): 1.59 µM (inactive)
- GI50 (PC-3): 2.84 µM (inactive)
- GI50 (HOP-62): 2.88 µM (inactive)
- GI50 (SN12C): 4.37 µM (inactive)
- GI50 (CCRF-CEM): 1.77 µM (inactive)
- GI50 (IGROV-1): 3.39 µM (inactive)
- GI50 (LOX IMVI): 4.6 µM (inactive)
- GI50 (MDA-N): 4.56 µM (inactive)
- GI50 (CAKI-1): 3.86 µM (inactive)
- GI50 (UO-31): 3.44 µM (inactive)
- GI50 (SW-620): 4.68 µM (inactive)
- GI50 (SK-MEL-5): 4.11 µM (inactive)
- GI50 (HT-29): 4.92 µM (inactive)
- GI50 (NCI/ADR-RES): 3.91 µM (inactive)
- GI50 (NCI-H460): 2.37 µM (inactive)
- GI50 (ACHN): 3.32 µM (inactive)
- GI50 (HCT-15): 2.96 µM
- GI50 (U-251): 2.7 µM (inactive)
- GI50 (786-0): 3.79 µM (inactive)
- GI50 (HL-60): 2.83 µM (inactive)
- GI50 (OVCAR-4): 6.27 µM (inactive)
- GI50 (MCF7): 2.89 µM (inactive)
- GI50 (SNB-75): 4.31 µM (inactive)
- GI50 (NCI-H522): 2.82 µM (inactive)
- GI50 (OVCAR-8): 4.22 µM (inactive)
- GI50 (SK-MEL-2): 2.55 µM (inactive)
- GI50 (KM12): 3.92 µM (inactive)
- GI50 (SF-539): 2.06 µM (inactive)
- GI50 (SR): 4.6 µM (inactive)
- GI50 (A549): 3.5 µM (inactive)
- GI50 (SK-MEL-28): 10.3 µM (inactive)
- GI50 (NCI-H23): 3.72 µM (inactive)
- GI50 (UACC-257): 2.49 µM (inactive)
- GI50 (RXF 393): 3.3 µM (inactive)
- GI50 (SF-268): 5.04 µM (inactive)
- GI50 (K562): 3.61 µM (inactive)
- GI50 (NCI-H226): 8.73 µM (inactive)
